Measurements: ChEMBL document CHEMBL5584201, “Amphiphilic tribasic galactosamines potentiate rifampicin in Gram-negative bacteria at low Mg++/Ca++concentrations” (Bioorg Med Chem Lett, 2024)

The molecules below were run on Pseudomonas aeruginosa (assay: Potentiation of rifampicin-induced antibacterial activity against Pseudomonas aeruginosa PAO1 assessed as fold change in rifampicin MIC in low salt containing media by Mueller-Hinton broth based assay).
Format: functional
In the case of `CCCCCCO[C@@H]1O[C@H](CN)[C@H](N)[C@H](OCc2ccc3ccccc3c2)[C@H]1N`, the “fold change (FC)” value is reported as 1.

These molecules were tested on Acinetobacter baumannii (assay: Potentiation of rifampicin-induced antibacterial activity against Acinetobacter baumannii ATCC 17978 assessed as fold change in rifampicin MIC in low salt containing media by Mueller-Hinton broth based assay).
Format: functional
In the case of `CCCCCCO[C@@H]1O[C@H](CN)[C@H](N)[C@H](OCc2ccc3ccccc3c2)[C@H]1N`, the “fold change (FC)” value is reported as 32.

The molecules below were run on Pseudomonas aeruginosa (assay: Antibacterial activity against Pseudomonas aeruginosa PAO1 in low salt containing media by Mueller-Hinton broth based assay).
Format: functional
Work on `CCCCCCO[C@@H]1O[C@H](CN)[C@H](N)[C@H](OCc2ccc3ccccc3c2)[C@H]1N` yielded an MIC greater than 128 µg/mL.

Each molecule was assayed on Escherichia coli (assay: Potentiation of rifampicin-induced antibacterial activity against Escherichia coli ATCC 25922 assessed as rifampicin MIC in low salt containing media by Mueller-Hinton broth based assay).
Format: functional
Molecule `CCCCCCO[C@@H]1O[C@H](CN)[C@H](N)[C@H](OCc2ccc3ccccc3c2)[C@H]1N` has an MIC of 16 µg/mL.

What follows are molecules tested on Escherichia coli (assay: Potentiation of rifampicin-induced antibacterial activity against Escherichia coli ATCC 25922 assessed as fold change in rifampicin MIC in low salt containing media by Mueller-Hinton broth based assay).
Format: functional
For `CCCCCCO[C@@H]1O[C@H](CN)[C@H](N)[C@H](OCc2ccc3ccccc3c2)[C@H]1N`, the “fold change (FC)” value was 32.

The molecules below were run on Acinetobacter baumannii (assay: Antibacterial activity against Acinetobacter baumannii ATCC 17978 in low salt containing media by Mueller-Hinton broth based assay).
Format: functional
`CCCCCCO[C@@H]1O[C@H](CN)[C@H](N)[C@H](OCc2ccc3ccccc3c2)[C@H]1N` was tested, and the MIC was 128 µg/mL.

Each molecule was assayed on Escherichia coli (assay: Antibacterial activity against Escherichia coli ATCC 25922 in low salt containing media by Mueller-Hinton broth based assay).
Format: functional
In the case of `CCCCCCO[C@@H]1O[C@H](CN)[C@H](N)[C@H](OCc2ccc3ccccc3c2)[C@H]1N`, the MIC is reported as 64 µg/mL.

Each molecule was assayed on Acinetobacter baumannii (assay: Potentiation of rifampicin-induced antibacterial activity against Acinetobacter baumannii ATCC 17978 assessed as rifampicin MIC in low salt containing media by Mueller-Hinton broth based assay).
Format: functional
With `CCCCCCO[C@@H]1O[C@H](CN)[C@H](N)[C@H](OCc2ccc3ccccc3c2)[C@H]1N` the MIC was 16 µg/mL.

What follows are molecules tested on Pseudomonas aeruginosa (assay: Potentiation of rifampicin-induced antibacterial activity against Pseudomonas aeruginosa PAO1 assessed as rifampicin MIC in low salt containing media by Mueller-Hinton broth based assay).
Format: functional
`CCCCCCO[C@@H]1O[C@H](CN)[C@H](N)[C@H](OCc2ccc3ccccc3c2)[C@H]1N` showed an MIC of 16 µg/mL.
